From US20170334899A1, “AMINO-SUBSTITUTED ISOTHIAZOLES” (Bayer Pharma Aktiengesellschaft, priority 2014, published 2017) come the findings set out here.

Each structure is given as a SMILES string.

What all share (assay type): cell-based
Test [1] concerns human cervical tumor cell line HeLa (ATCC CCL-2). The experiment in a line: SAC-Formation - Nocodazole-Induced Assay. To be noted: Homo sapiens, HeLa, 24 h, HeLa cells, nocodazole 0.1 μg/ml together with test compound, decrease of mitotic cells (phospho-histone H3 Ser10). The method in brief: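 HeLa cells, plated overnight, were treated 24 h at 37 °C with nocodazole (0.1 μg/ml final) plus test compound (0.005–20 μM, 0.5% DMSO) added at the same time. After fixation, anti-phospho-histone H3 Ser10 and Hoechst staining gave the mitotic cell fraction by imaging. Values came from four-parameter Hill fits.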

In the next test the test system is HeLa. Kind of test: Proliferation assay (crystal violet), HeLa. To be noted: Homo sapiens, HeLa, 96 h, HeLa cells; 4 days incubation; crystal violet staining; read-out: IC50 inhibition of proliferation, HeLa. The essentials:
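Cells plated at 1000-5000/well with 10% FCS, treated after 24 h with compound at 0.001-10 μM (0.5% DMSO) for 4 days. Glutaraldehyde-fixed, crystal violet-stained, A595 normalised to zero-point plate (0%) and untreated cells (100%); IC50 by 4-parameter fit.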

The subject of test [2] is human cervical tumor cell line HeLa (ATCC CCL-2). The experiment in a line: SAC-Formation - Paclitaxel-Induced Assay. To be noted: Homo sapiens, HeLa, 24 h, HeLa cells, paclitaxel 0.05 μM, test range 0.005 μM-20 μM, read-out: IC50 [mol/l] SAC-Formation - Paclitaxel-Induced Assay. The method in brief:
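HeLa cells incubated overnight at 37° C, then given paclitaxel (0.05 μM final) plus test compound (0.005–20 μM, 0.5% DMSO) together for 24 h at 37° C. Fixed cells stained for phospho-histone H3 Ser10 (mitotic cells) and Hoechst 33342 (cell count); imaging-derived mitotic index fitted by four-parameter Hill equation.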

Consider `COc1cc(CNC(=O)c2cccc(NC(=O)c3c(C)nsc3Nc3cnc4ccccc4n3)c2)cc(OC)c1OC` [Example 69, 3-Methyl-5-(quinoxalin-2-ylamino)-N-{3-[(3,4,5-trimethoxy-benzyl)carbamoyl]phenyl}-1,2-thiazole-4-carboxamide], for which the IC50 is 0.87 µM in test [1], 4 µM in the test with HeLa and 2.6 µM in test [2].

With `Cc1nsc(Nc2cnc3ccccc3n2)c1C(=O)Nc1cccc(C(=O)Nc2ccc3c(c2)OCO3)c1` [Example 63, N-[3-(1,3-Benzodioxol-5-ylcarbamoyl)phenyl]-3-methyl-5-(quinoxalin-2-ylamino)-1,2-thiazole-4-carboxamide], the IC50 worked out at 0.19 µM in test [1], 3.6 µM in the test with HeLa and 0.44 µM in test [2].

Turning to `Cc1nsc(Nc2cnc3ccccc3n2)c1C(=O)Nc1cccc(C(=O)N(C)CCCN(C)C)c1` [Example 68, N-(3-{[3-(Dimethylamino)propyl](methyl)carbamoyl}-phenyl)-3-methyl-5-(quinoxalin-2-ylamino)-1,2-thiazole-4-carboxamide], the IC50 in test [1] came out at 0.11 µM; in the test on HeLa, 10 µM; in test [2], 1.1 µM.
